Results published in ChEMBL document CHEMBL1201862, “PubChem BioAssay data set” (2004).
Activity calls are given as the source filed them.

Key:
[1] = target: Alkaline phosphatase, placental type (Homo sapiens, UniProt P05187); test: PLAP enzyme inhibitors, confirmation, biochemical, luminescence (AID 1512); type: functional
[2] = target: Glyceraldehyde-3-phosphate dehydrogenase (Homo sapiens, UniProt P04406)
Beta-galactosidase [3] = target: T1, Beta-galactosidase (Escherichia coli, UniProt Q8VNN2); test: beta-galactosidase enzyme inhibitors and activators, dose response, artefact control for CCR6 antagonist project, biochemical, E. coli enzyme, set 3 (AID 504712); type: functional
[4] = inhibitors of intracellular T. cruzi replication, confirmation, NIH3T3 host cells, beta-gal luminescence (AID 2044); type: functional, cell-based;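 further: intracellular parasites grown in NIH/3T3 mouse fibroblasts as host cells; luminescent beta-galactosidase reporter signal from transgenic T. cruzi replicating inside host cells; inhibitors lower the luminescence signal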
[5] = cytotoxicity toward NIH3T3 fibroblasts, dose response, counter-screen, cell-based, ATP luminescence, mouse fibroblasts (AID 2010); type: functional;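 further: cells exposed to compound for about 90 hours before reading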
[6] = microbe, parasite or virus in culture; type: functional; conditions: Mycobacterium tuberculosis
[7] = ADAM10 protease inhibitors, dose response, selectivity assay for ADAM17 exosite inhibitor project, biochemical, FRET peptide substrate, recombinant human ADAM10 (AID 743259);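 further: ADAM10 enzyme cleaving a FRET peptide substrate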
[8] = target: Disintegrin and metalloproteinase domain-containing protein 17 (Homo sapiens, UniProt P78536); test: exosite inhibitors of ADAM17, dose response, biochemical (AID 743260)
[9] = target: G-protein coupled receptor 55 (Homo sapiens, UniProt Q9Y2T6); test: GPR55 agonists via beta-arrestin recruitment, primary screen, imaging, U2OS cells, beta-arrestin-GFP redistribution (AID 1961); type: functional
[10] = target: T2, Short transient receptor potential channel 4 (Mus musculus, UniProt Q9QUQ5); test: TRPC4 positive allosteric modulators, dose response, cell-based, HEK293 TRPC4/mu-opioid, Fluo-4 calcium, EC20 DAMGO (AID 434941); type: functional
T2 sequence (Q9QUQ5 whole entry): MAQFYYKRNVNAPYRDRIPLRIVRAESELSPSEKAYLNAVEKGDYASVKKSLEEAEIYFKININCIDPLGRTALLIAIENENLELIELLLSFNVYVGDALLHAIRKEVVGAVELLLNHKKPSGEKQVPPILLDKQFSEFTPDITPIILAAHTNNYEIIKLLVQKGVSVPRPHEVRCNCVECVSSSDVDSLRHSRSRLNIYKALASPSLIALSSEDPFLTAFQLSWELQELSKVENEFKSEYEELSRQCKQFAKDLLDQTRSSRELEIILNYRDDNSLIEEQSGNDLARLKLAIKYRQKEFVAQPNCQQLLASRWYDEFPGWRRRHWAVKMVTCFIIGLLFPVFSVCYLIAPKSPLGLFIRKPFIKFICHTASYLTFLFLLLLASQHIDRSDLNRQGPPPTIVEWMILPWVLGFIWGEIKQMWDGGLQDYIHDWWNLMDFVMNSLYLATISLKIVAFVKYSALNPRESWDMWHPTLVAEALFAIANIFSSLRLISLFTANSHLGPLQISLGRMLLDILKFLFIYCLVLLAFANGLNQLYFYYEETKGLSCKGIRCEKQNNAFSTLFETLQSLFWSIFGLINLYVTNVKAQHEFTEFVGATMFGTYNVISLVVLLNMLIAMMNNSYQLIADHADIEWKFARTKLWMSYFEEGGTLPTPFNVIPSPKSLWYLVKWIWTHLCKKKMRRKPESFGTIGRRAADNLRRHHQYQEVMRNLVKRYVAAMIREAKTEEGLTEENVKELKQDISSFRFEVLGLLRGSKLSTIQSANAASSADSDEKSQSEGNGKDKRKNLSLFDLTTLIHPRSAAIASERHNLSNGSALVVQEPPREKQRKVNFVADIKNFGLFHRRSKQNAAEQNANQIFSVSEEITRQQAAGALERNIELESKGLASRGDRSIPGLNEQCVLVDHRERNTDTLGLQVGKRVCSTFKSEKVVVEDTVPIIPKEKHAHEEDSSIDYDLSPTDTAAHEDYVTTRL

[11] = target: T3, Voltage-gated N-type calcium channel alpha-1B subunit/Amyloid beta A4 precursor protein-binding family A member 1 (Homo sapiens, UniProt Q00975+Q02410); type: protein assay
[12] = target: T3, Voltage-gated N-type calcium channel alpha-1B subunit/Amyloid beta A4 precursor protein-binding family A member 1; type: protein assay; remark: listed apart in the source
Estrogen receptor = target: T4, Estrogen receptor (Homo sapiens, UniProt P03372);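 further: potency for inhibiting coactivator peptide recruitment to the receptor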
T4 sequence (P03372 whole entry): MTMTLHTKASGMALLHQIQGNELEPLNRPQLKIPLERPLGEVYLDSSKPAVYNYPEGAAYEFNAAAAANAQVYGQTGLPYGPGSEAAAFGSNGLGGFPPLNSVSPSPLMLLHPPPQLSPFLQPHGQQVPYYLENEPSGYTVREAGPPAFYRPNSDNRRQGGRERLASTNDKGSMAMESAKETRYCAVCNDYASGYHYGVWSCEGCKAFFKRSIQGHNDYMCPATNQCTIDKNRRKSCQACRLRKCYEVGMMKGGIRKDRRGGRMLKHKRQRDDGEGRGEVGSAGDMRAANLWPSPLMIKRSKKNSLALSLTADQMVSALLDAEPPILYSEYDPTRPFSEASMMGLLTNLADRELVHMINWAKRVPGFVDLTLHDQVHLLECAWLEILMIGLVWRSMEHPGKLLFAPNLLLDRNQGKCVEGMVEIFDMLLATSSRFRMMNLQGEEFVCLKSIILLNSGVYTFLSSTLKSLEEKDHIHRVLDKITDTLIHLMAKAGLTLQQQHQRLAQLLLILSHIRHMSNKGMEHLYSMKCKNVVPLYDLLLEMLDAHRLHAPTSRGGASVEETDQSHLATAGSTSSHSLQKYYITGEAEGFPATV

Mu-type opioid receptor = Mu-type opioid receptor (Homo sapiens, UniProt P35372); test: SAR Analysis of Antagonists of the MOR Receptor using an Image-Based Assay - Set 3. [Related pubchem assays (depositor defined):AID1777, AID1785, AID1786, AID1966, AID2133, AID2136, AID2284, AID2285, AID2420]; type: functional
[13] = target: T5, Kappa-type opioid receptor (Homo sapiens, UniProt P41145); test: SAR analysis of Antagonists of the Kappa Opioid Receptor (KOR) using an Image-Based Assay - Set 4. [Related pubchem assays (depositor defined):AID1777, AID1785]; type: functional
[14] = target: T5, Kappa-type opioid receptor; test: SAR analysis of small molecule antagonists of the kappa opioid receptor via a luminescent beta-arrestin assay - Set 4. [Related pubchem assays (depositor defined):AID1777, AID1778, AID1785, AID1786, AID1966, AID2133, AID2136, AID2285]; type: functional
[15] = target: Delta-type opioid receptor (Homo sapiens, UniProt P41143); test: SAR Analysis of Antagonists of the DOR Receptor using an Image-Based Assay - Set 3. [Related pubchem assays (depositor defined):AID1777, AID1785]; type: functional;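 further: U2OS cells expressing DOR1 and beta-arrestin GFP stimulated with 100 nM SNC80; imaging of GFP-tagged beta-arrestin moving into spots after receptor activation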
[16] = target: T6, Dual specificity protein phosphatase 6 (Rattus norvegicus, UniProt Q64346); type: functional;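 further: confirmatory in vitro dose-response testing of MKP-3 inhibition; recombinant His-tagged MKP-3 made in E. coli BL21 with OMFP substrate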
T6 sequence (Q64346 whole entry): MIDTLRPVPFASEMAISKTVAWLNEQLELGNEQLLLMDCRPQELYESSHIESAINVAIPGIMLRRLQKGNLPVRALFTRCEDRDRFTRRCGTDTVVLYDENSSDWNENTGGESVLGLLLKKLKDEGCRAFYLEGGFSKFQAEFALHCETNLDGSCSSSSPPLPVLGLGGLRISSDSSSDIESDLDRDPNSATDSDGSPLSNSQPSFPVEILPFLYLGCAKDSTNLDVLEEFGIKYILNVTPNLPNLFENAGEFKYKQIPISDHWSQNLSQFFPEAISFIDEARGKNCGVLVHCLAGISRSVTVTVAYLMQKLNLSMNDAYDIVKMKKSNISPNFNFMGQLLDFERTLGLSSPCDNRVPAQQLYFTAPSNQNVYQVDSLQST

[17] = target: T7, Dual specificity protein phosphatase 3 (Homo sapiens, UniProt P51452); test: SAR VHR1 absorbance Assay for In Vitro dose response studies. [Related pubchem assays (depositor defined):AID1654, AID1661, AID1878, AID1992, AID2004]
[18] = target: Tyrosine-protein phosphatase non-receptor type 12 (Homo sapiens, UniProt Q05209); test: SAR Selectivity Analysis of small molecule inhibitors of PEST using pCAP in a fluorescence assay. [Related pubchem assays (depositor defined):AID1779, AID1784, AID2135]; type: functional
[19] = target: T8, Tyrosine-protein phosphatase non-receptor type 7 (Homo sapiens, UniProt P35236); test: redox-dependent HePTP inhibition, mechanism study, biochemical, fluorescence (AID 2068); type: functional
T8 sequence (P35236 whole entry): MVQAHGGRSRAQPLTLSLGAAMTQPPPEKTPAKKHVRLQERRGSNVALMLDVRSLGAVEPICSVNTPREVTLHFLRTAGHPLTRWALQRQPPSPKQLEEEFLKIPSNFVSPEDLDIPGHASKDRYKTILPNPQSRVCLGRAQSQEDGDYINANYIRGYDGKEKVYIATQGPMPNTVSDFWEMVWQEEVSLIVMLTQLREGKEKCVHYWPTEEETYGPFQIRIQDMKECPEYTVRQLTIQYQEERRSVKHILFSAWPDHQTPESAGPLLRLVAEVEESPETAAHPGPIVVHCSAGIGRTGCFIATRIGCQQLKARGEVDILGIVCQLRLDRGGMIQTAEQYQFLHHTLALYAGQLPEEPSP

[20] = target: T7, Dual specificity protein phosphatase 3; test: SAR VHR1 Fluorescent Assay for In Vitro dose response studies. [Related pubchem assays (depositor defined):AID1654, AID1661, AID1878, AID1992, AID2004, AID2070, AID2085]; type: functional
[21] = target: T9, Tyrosine-protein phosphatase non-receptor type 22 (Homo sapiens, UniProt Q9Y2R2); test: LYP (PTPN22) phosphatase inhibitor potency, SAR follow-up, biochemical, pCAP fluorogenic substrate, fluorescence, set 3 (AID 449727); type: functional
T9 sequence (Q9Y2R2 whole entry): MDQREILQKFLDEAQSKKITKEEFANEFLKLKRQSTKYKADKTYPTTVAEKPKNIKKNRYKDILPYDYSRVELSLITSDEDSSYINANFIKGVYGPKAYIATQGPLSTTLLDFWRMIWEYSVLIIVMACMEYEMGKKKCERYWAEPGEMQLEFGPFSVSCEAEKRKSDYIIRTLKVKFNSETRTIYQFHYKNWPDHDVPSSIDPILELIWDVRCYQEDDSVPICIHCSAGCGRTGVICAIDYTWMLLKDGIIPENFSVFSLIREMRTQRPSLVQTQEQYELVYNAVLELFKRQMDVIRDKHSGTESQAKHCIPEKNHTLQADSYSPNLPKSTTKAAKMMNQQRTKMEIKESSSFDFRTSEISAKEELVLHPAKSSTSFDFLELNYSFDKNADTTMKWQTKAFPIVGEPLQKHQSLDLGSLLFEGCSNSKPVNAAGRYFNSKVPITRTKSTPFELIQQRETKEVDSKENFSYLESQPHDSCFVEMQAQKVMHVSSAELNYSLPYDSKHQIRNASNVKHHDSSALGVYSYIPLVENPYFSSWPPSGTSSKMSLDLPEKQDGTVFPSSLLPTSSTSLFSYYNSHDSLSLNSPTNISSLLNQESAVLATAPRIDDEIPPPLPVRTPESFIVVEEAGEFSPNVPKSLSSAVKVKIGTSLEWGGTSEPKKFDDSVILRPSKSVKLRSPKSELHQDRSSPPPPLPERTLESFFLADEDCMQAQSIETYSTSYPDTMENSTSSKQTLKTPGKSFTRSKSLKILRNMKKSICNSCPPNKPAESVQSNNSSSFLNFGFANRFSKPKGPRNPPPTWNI

[22] = target: T9, Tyrosine-protein phosphatase non-receptor type 22; test: SAR LYP1 Fluorescent Assay using OMFP substrate for In Vitro dose response studies - Set 3. [Related pubchem assays (depositor defined):AID1779, AID1784, AID2140, AID2686]; type: functional
[23] = target: T5, Kappa-type opioid receptor; type: functional
[24] = target: T5, Kappa-type opioid receptor; type: functional; remark: listed apart in the source
Beta-galactosidase [25] = target: T1, Beta-galactosidase; type: functional

T5 sequence (P41145 whole entry): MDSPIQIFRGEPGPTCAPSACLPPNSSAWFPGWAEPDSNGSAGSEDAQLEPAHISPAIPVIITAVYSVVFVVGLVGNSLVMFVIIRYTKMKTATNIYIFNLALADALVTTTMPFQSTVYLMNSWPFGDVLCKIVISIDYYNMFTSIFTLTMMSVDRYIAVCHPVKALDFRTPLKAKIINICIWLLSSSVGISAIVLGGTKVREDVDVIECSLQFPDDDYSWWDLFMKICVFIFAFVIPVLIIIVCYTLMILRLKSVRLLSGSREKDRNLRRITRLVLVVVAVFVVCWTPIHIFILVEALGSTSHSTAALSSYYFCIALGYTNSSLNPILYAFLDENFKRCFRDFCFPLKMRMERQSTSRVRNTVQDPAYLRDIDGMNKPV
T1 sequence (Q8VNN2 whole entry): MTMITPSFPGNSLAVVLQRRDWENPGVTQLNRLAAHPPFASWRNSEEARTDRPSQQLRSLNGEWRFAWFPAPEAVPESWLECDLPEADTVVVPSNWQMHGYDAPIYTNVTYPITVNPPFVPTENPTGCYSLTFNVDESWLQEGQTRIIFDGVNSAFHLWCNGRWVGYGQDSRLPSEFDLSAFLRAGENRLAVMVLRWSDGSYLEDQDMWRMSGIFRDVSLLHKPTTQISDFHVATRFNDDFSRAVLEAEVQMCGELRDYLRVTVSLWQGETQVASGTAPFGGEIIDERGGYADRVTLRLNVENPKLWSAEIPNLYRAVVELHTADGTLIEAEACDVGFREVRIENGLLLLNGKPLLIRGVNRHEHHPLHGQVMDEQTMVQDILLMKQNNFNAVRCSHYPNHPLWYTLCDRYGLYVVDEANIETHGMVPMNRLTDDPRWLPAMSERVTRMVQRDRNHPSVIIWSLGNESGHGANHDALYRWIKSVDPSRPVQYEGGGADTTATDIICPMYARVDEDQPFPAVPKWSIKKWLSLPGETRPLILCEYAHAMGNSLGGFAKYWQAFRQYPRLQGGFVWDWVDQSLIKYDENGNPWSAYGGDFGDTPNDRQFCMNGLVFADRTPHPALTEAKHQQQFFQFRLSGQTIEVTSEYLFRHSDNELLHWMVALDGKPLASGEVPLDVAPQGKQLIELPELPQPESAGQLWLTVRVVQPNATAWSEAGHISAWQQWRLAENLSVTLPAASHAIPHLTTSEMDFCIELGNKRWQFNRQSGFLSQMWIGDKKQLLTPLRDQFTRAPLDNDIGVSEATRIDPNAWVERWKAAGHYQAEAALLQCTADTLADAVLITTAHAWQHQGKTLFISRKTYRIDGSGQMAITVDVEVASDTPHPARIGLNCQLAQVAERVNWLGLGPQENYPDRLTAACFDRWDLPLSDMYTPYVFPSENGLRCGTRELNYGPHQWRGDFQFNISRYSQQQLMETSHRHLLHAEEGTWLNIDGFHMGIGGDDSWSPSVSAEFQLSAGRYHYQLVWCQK
T7 sequence (P51452 whole entry): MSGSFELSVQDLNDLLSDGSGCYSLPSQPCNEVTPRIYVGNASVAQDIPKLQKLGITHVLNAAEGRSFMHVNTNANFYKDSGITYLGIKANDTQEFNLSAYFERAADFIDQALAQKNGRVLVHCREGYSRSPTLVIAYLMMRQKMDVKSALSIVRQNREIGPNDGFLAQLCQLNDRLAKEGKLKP
T3 sequence (Q00975 whole entry): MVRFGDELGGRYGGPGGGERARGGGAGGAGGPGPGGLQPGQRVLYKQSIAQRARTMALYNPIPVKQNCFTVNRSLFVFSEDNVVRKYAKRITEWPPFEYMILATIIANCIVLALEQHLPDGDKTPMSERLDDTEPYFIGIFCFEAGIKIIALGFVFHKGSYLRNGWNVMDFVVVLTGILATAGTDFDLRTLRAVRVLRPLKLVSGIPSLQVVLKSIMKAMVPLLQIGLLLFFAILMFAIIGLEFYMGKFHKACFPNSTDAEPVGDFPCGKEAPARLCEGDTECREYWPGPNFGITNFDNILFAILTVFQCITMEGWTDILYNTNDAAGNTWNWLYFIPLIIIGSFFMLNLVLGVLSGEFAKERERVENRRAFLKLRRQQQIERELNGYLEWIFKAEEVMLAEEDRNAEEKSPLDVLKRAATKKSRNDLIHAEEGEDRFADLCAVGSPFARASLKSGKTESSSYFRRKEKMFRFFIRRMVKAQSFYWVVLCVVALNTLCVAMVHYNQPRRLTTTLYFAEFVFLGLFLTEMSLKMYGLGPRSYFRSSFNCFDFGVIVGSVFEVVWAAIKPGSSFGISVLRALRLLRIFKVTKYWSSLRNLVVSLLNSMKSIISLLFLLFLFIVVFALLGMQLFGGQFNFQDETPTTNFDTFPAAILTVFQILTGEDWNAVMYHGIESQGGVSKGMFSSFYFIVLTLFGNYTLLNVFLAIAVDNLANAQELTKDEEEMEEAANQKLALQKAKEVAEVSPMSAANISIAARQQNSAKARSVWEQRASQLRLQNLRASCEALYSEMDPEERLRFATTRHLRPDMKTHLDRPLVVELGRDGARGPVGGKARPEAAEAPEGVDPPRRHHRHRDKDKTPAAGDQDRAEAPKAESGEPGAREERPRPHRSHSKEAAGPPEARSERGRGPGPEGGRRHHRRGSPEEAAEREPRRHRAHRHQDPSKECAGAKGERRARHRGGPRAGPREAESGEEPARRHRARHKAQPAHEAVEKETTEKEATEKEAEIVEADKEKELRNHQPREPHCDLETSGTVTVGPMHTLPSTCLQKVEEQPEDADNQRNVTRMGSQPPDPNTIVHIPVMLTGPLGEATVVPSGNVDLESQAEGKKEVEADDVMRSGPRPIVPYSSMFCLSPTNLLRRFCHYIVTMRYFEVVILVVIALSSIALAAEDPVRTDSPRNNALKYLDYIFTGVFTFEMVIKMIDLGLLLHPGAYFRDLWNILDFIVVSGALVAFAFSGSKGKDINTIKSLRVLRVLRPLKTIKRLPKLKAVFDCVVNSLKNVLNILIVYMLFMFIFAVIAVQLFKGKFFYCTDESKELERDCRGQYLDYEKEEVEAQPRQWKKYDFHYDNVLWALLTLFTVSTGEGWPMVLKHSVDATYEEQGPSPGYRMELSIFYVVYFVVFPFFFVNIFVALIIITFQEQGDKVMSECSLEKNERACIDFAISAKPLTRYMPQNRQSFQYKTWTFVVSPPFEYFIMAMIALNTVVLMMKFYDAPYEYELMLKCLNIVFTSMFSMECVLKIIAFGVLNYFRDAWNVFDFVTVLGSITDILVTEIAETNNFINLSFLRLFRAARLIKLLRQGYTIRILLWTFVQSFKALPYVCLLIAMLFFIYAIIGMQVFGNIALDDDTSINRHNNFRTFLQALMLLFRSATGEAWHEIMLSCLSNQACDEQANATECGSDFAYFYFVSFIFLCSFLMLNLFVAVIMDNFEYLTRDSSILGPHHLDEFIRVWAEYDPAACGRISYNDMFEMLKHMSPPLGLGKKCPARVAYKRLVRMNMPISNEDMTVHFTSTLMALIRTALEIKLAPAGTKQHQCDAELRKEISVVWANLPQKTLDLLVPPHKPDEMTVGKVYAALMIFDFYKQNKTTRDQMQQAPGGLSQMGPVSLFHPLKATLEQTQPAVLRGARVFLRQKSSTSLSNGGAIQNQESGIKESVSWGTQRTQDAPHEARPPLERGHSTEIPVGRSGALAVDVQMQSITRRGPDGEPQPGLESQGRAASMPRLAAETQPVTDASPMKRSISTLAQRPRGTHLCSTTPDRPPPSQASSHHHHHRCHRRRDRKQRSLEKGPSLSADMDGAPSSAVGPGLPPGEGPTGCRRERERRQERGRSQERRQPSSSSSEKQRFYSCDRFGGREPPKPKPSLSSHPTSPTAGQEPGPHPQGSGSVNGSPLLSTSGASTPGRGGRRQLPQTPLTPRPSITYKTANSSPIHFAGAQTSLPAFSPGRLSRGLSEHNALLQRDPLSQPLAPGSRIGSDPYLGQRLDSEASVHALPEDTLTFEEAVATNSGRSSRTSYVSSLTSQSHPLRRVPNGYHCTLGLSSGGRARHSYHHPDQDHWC
T3 sequence (Q02410 whole entry): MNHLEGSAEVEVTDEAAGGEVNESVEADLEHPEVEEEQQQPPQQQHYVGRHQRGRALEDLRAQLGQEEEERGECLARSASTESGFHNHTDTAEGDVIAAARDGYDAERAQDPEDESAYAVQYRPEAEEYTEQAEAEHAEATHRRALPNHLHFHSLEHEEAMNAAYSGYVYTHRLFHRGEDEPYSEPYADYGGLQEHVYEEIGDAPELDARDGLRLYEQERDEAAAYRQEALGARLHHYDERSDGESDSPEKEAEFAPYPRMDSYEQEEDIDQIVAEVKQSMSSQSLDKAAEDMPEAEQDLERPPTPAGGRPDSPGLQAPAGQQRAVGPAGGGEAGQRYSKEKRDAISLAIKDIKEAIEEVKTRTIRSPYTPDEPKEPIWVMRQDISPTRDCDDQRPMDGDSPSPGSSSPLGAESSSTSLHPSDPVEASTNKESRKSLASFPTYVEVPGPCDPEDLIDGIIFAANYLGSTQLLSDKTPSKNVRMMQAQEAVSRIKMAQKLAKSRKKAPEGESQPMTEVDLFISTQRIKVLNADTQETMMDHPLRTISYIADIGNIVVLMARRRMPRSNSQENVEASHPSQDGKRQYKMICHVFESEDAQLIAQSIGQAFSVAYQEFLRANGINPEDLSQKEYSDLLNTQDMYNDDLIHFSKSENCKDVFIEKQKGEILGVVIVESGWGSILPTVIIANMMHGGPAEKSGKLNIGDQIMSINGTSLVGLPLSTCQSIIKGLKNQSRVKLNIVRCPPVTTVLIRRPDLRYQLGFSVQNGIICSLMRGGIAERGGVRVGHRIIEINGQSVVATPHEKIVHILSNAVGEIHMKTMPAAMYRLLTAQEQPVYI
G-protein coupled receptor 55, sequence (Q9Y2T6 whole entry): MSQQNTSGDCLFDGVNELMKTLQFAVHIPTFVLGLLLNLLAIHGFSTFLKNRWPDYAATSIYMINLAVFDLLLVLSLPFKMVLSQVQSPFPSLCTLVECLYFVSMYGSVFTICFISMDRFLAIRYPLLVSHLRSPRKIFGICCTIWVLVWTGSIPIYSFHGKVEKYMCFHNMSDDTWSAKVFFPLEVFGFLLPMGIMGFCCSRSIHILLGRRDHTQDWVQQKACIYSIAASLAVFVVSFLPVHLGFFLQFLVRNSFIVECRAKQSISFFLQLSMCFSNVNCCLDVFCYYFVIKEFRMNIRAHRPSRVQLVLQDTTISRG

CC(C)NC(=O)c1cc(-c2cc(F)c(Cl)cc2Cl)n[nH]1
IC50 [1]: > 100 µM (inactive) | IC50 [2]: > 100 µM (not active)

C=CCN(CC=C)C(=S)NC(=O)c1ccc(-c2ccccc2)cc1
IC50 (Beta-galactosidase [3]): > 66.6 µM (inactive) | EC50 [4]: 1.82 µM (active) | EC50 [5]: 9.2 µM (active) | CC50 [6]: > 40 µM (active)

Cc1ccc(S(=O)(=O)N(Cc2ccc(Cl)cc2)c2ccccc2C(=O)NCc2ccco2)cc1
IC50 [7]: > 7.72 µM (active) | IC50 [8]: > 69.5 µM (inactive) | EC50 [9]: > 32 µM (inactive)

O=[N+]([O-])c1cc(C(F)(F)F)ccc1NC1CCN(Cc2ccccc2)C1 (configuration not stated)
EC50 [10]: 0.67 µM (active)

C=CCOc1ccc(CC2C(=O)N(C)C(=O)N(C)C2=O)cc1
IC50 [11]: > 50 µM (inactive) | IC50 [12]: 4.93 µM (active) | IC50 (Estrogen receptor): > 50 µM (not active)

CC(C)N(CCNC(=O)c1ccc(CNS(=O)(=O)c2ccc(C(C)(C)C)cc2)cc1)Cc1ccccc1
IC50 (Mu-type opioid receptor): > 32 µM (inactive) | IC50 [13]: 0.79 µM (active) | IC50 [14]: 2.66 µM (active) | IC50 [15]: > 32 µM (inactive)

Cc1cc(OCC(=O)O)ccc1S(C)(=O)=O
IC50 [16]: > 99 µM (inactive) | IC50 [17]: > 100 µM (inactive) | IC50 [18]: > 100 µM (inactive) | IC50 [19]: > 100 µM (inactive) | IC50 [20]: > 99 µM (inactive) | IC50 [21]: > 100 µM (inactive) | IC50 [22]: > 100 µM (inactive)

CCCCC/C(=N/O)c1c(C)[nH]c2ccccc12
IC50 [23]: > 31.5 µM (inactive) | IC50 [24]: > 32 µM | EC50 (Beta-galactosidase [25]): > 31.5 µM (inactive)
